PubChem BioAssay (NCI)
Several values for one entry are separate records, joined by “and”; a condition that tells them apart may be missing. Equal values may be shown once.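 Growth conditions: 96-well plates. Treatment: test compound, 48 hours, 5 concentrations. Analysis: linear interpolation between bracketing concentrations; unreached endpoints set to highest concentration. GI50: concentration for 50% inhibition of growth. TGI: total growth inhibition.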

Each compound was assayed on MDA-MB-468 breast (assay: growth of human tumour cells (NCI), 48 h).

Structure (SMILES) | GI50 | TGI
OCc1ccc(N(Cc2ccc(F)cc2)CC2CCC2)cc1Cl | 184 nM | 610 nM
CNCCNc1nc2ccccc2c2c(=O)c3cccc(C)c3sc12 | 892 nM | 1940 nM
COC(=O)[C@]12CC[C@@H](C)[C@H](C)[C@@H]1C1=CC[C@@H]3[C@@]4(C)CC(=O)[C@H](O)[C@@](C)(CO)[C@@H]4C(=O)C[C@@]3(C)[C@]1(C)CC2 | 15200 nM | 32200 nM
Oc1cccc(-c2nc(-c3ccccc3)[nH]c2-c2ccncc2)c1 | 2080 nM | 11400 nM
Fc1ccc(-c2c(-c3ccncc3)[nH]c3nccnc23)cc1 | 4480 nM | > 21500 nM
CCCCOc1ccc(S(=O)(=O)N2CCN(c3nc(C)cc(N4CCOCC4)n3)CC2)cc1 | 2690 nM | > 100000 nM
COc1cc(-c2nn(-c3cccc(NC(=O)CCN4CCN(C)CC4)c3)cc2-c2ccncc2)ccc1Cl | 997 nM | 2850 nM
Cc1[nH]n(-c2cccc(Cl)c2)c(=O)c1/C=C1\C=c2ccccc2=CC1=O | 17600 nM | 74700 nM
Cc1cc(N)cc(C)c1-c1c(Br)cc(N)cc1Br | 2090 nM | 6580 nM
O=c1c2cc(-c3ccc(F)cc3F)ccc2n(O)c(=O)n1-c1cccc(C(F)(F)F)c1 | 1680 nM | 5400 nM
N=C1/C(=C2\Nc3ccccc3S2)CC(=O)N1c1ccc(SC(F)F)cc1 | > 100000 nM | > 100000 nM
Cn1cc(C2=C(c3c(S(C)=O)n(C)c4ccccc34)C(=O)NC2=O)c2ccccc21 (centres undefined) | 6710 nM | > 25000 nM
CCCCNNC(=O)c1ccc(-c2cccc(F)c2F)cc1 | 1710 nM | 6060 nM
C#Cc1ccc(-n2c(/C=C/c3ccc4ccccc4c3)nc3ncccc3c2=O)cc1 | 963 nM | 7770 nM
COCCOC1=C(Cl)C(=O)c2c(O)ccc(O)c2C1=O | 899 nM | 2450 nM
O=C(O)c1cn(C2CC2)c2cc(N3CCN(Cc4ccc5ccccc5c4O)CC3)c(F)cc2c1=O | 4550 nM | > 100000 nM
CC1(O)COCCCCOc2c(CN)cccc2NC(=O)c2nc(cnc2N)-c2ccc(cc2)S(=O)(=O)C(C)(C)C1 (centres undefined) | 939 nM | 2520 nM
COc1ccc(-c2nc3sccn3c2-c2ccnc(NCCCNS(=O)(=O)c3ccc(F)cc3)n2)cc1 | 1550 nM | 6480 nM
CNc1ncc2cc(-c3cc(NC(=O)NCCC(C)(C)C)c(F)cc3C)c(C)nc2n1 |  | > 67100 nM
COc1cc(Cn2c(SCC(=O)Nc3ccc(Cl)cc3)nc3ccccc3c2=O)cc(OC)c1OC | 7220 nM | 42400 nM

Structure (SMILES) | GI50 | TGI
O=C(CSc1ncc(-c2ccccc2)n1-c1ccccc1)Nc1ccc(-c2nc3ccccc3s2)cc1 | 1350 nM | 4960 nM
COC(=O)c1ccc2c(C(=Nc3ccc(N(C)C(=O)CN4CCN(C)CC4)cc3)c3ccccc3)c(O)[nH]c2c1 | 2130 nM | 9780 nM
Cc1cc(C#Cc2ccccc2)ccc1-n1c(/C=C/c2cc(O)ccc2O)nc2ccccc2c1=O | 1610 nM | 4190 nM
COc1ccc(/C=C2/CN(CCC#N)C/C(=C\c3ccc(OC)cc3)C2=O)cc1 | 1390 nM | 4950 nM
COc1ccc2c(c1)N(CCO)C1=C(C(=O)OC1)C2c1ccc(OC)c(OC)c1 (centres undefined) | 1740 nM | 7570 nM
O=C1NC(=N[C@H](CO)c2ccccc2)S/C1=C\c1ccc2ncccc2c1 | 2060 nM | 8970 nM
N[C@@H](CSSC[C@H](N)C(=O)N1CCn2cc(-c3ccccc3)nc2[C@@H]1CC1CCCCC1)C(=O)N1CCn2cc(-c3ccccc3)nc2[C@@H]1CC1CCCCC1 | 1070 nM | 2530 nM
O=C1NC(=O)C(c2c[nH]c3ccccc23)=C1c1ccccc1 | > 25000 nM | > 25000 nM
O=C(Nc1ccccc1)Nc1ccc(Cl)c(Cl)c1 | 2830 nM | 13900 nM
O=C1/C(=C/c2ccccc2[N+](=O)[O-])COc2ccc(O)c(O)c21 | 608 nM | 2940 nM
CC(C)[C@H](C(=O)O[C@@H]1/C=C/C(=O)O[C@@H](C)CCC/C=C/[C@@H]2C[C@H](O)C[C@H]21)N(C)C | 1610 nM | 4620 nM
CCN(CCO)CCCOc1ccc2c(Nc3cc(CC(=O)Nc4cccc(F)c4)[nH]n3)ncnc2c1 | 1040 nM and 109 nM | 18900 nM
CN1CCN(c2ccc(Nc3ncc4cc5n(c4n3)C3(CCCCC3)CNC5=O)nc2)CC1 | 10900 nM | 36000 nM
CCN1C(=O)N(CC)C2C1NN=c1s/c(=C\c3ccc(OC)cc3)c(=O)n12 (centres undefined) | 130 nM | > 60800 nM
N#Cc1ccc(/C=C/C(=O)c2ccccc2)cc1 | 5950 nM and 1890 nM | 21100 nM and 5440 nM
FC(F)(F)c1ccc(NCc2nc3ccccc3[nH]2)cc1 | 16700 nM | 55600 nM
COc1ccc2nc3cc(Cl)ccc3c(Nc3cc(C(C)C)c(O)cc3C)c2c1 | 1560 nM | 4600 nM
CS(=O)(=O)N1CCc2c(-c3cnc(N)nc3)nc(N3CCOCC3)nc21 | 305 nM and 264 nM | 3000 nM and 2300 nM
CNCCN(C)Cc1cn[nH]c1-c1ccc(OC2CC(OCCC3CCOCC3)C2)cc1 (centres undefined) | 33700 nM | > 100000 nM
CCCc1n(Cc2ccc3ccccc3n2)cc[n+]1Cc1ccc2ccccc2n1 | 232 nM | 1550 nM
